Ends that are not written are not given here.
How the values were obtained:
[1] = system: tumours induced by injection of PC-3; assay: Growth of PC-3 xenograft tumours in nude mice; assay type: in vivo
Protocol: Batches of 10 nude mice (nude/nude, Laboratoire IFFA CREDO) were injected with 2×10^6 PC-3 cells. One week after injection of the cells, the animals having a palpable tumour were randomly distributed per cage to be treated by injection into the tumour with 100 μl per day of PBS solution (control batch) or with a solution of dermaseptin B2 diluted in PBS. Dermaseptin B2 was injected at a concentration of 5 mg/kg the first week of treatment, then this dose was reduced to 0.5 mg/kg for 12 days. […] As control, a batch of mice was also treated with Taxol® (paclitaxel, Bristol-Myers Squibb) twice per week via intra-peritoneal injection at 10 mg/kg. The size of the tumours was measured using a calliper twice a week up until sacrifice of the animals 29 days after the beginning of treatment. After sacrifice, the tumours were removed and weighed.

ABAE cells = assay: Formation of pseudo capillaries by ABAE cells on collagen 1 gel (Montessano test); assay type: cell-based, bovine; conditions: 5 μM
Protocol: The effect of dermaseptin B2 on the formation of pseudo capillaries was assessed through use of the Montessano test. This test allows evaluation of the differentiation of ABAE cells to pseudo capillaries when seeded in a monolayer on collagen 1 gel. For this assay, ABAE cells were seeded in 24-well plates on a monolayer of collagen 1 to the proportion of 10^5 cells/well in DMEM medium supplemented with 10% foetal calf serum. 24 hours after seeding, 20 ng/ml of FGF-2 were added to the cells in the absence or presence of varying concentrations of dermaseptin B2. This treatment was renewed for two days and the formation of a network of pseudo capillaries was assessed 24 hours later by observation under phase contrast microscope measuring the number of capillaries formed per field of observation (FIGS. 5C and D).

Raji cells = assay: Growth of non-adherent B-lymphoma line Raji, crystal violet cell count; assay type: cell-based, human; conditions: 10 μM; count on 7th day
Protocol: (§1) Dermaseptin B2 was also tested on the growth of two non-adherent lines derived from human B-lymphoma: the Raji and LB-EBV lines. The cells were seeded at 10^4 cells per well in 0.5 ml of RPMI medium supplemented with 2.5% of decomplemented foetal calf serum. 24 hours after seeding, the cells were treated with different concentrations of dermaseptin B2. […] On the 7th day, the cell count was estimated by staining with crystal violet as described previously.

[2] = system: adult bovine aortic endothelial cells (ABAE); assay: Proliferation of ABAE endothelial cells on plastic; assay type: cell-based; conditions: with 5 ng/ml FGF-2; count on 7th day
Protocol: The angiostatic activity of dermaseptin B2 was assessed for its capacity to inhibit firstly the proliferation of adult bovine aortic endothelial cells (ABAE) on plastic and secondly the formation of pseudo capillaries by these same cells in collagen gel. For the proliferation test the ABAE cells were seeded in 24-well plates at a density of 10^4 cells/well in DMEM medium supplemented with 10% foetal calf serum and 5 ng/ml of FGF-2. […] On the 7th day the cell count was estimated by staining with crystal violet.

receptor of adenosin A1 = conditions: cited from earlier work
PC-3 cells [3] = assay: Colony formation of PC-3 cells in soft agar; assay type: cell-based, human; conditions: 5 μM; 12 days
Protocol: To confirm the inhibition of the cell growth observed on plastic with the PC-3 cells, the inventors tested the effect of dermaseptin B2 on the ability of the PC-3 cells to multiply independently of anchoring by forming colonies in agar. For this assay, the cells were seeded at a density of 2.5×10^3 cells par cm^2 diluted in complete culture medium (RPMI supplemented with 5% foetal calf serum) containing 0.35% agar and varying concentrations of dermaseptin B2, in 12-well dishes containing 1 ml of solidified 0.6% agar. The same variable concentrations of dermaseptin B2 were also added to the complete culture medium deposited on top of the cultures on the day of seeding, and twice per week. After incubation for 12 days at 37° C. in an incubator saturated with water vapour and containing 7% CO2, the colonies having a diameter larger than […] were counted. Each measurement was performed in triplicate and each experiment was repeated three times.

mouse embryo cells (CES) = system: mouse embryo cells (CES)
Protocol: (§2) The anti-proliferative activity of dermaseptin B2 was assessed in vitro on different types of cells: PC-3 adenocarcinoma cells and G1947 human prostatic hyperplasia cells, and on mouse embryo cells (CES). The different types of cells were seeded in 24-well plates at […] in 0.5 ml of culture medium (RPMI supplemented with 5% foetal calf serum for the PC-3 and G1947 cells, or DMEM supplemented with 10% foetal calf serum for the CES cells). After 24 hours, the cells were treated with different doses of dermaseptin B2. The treatment was then renewed at days 3 and 5 after seeding of the cells. On the 6th day, an estimated cell count was performed by staining with crystal violet. The cells were rinsed with PBS, fixed on plastic by dehydration with absolute ethanol, and then stained with a 0.2% solution of crystal violet in 2% ethanol for 15 min. After washing, the cells were solubilised with 1% SDS solution. The optical density (OD) of the crystal violet was measured using a spectrophotometer at 595 nm. A standard range was produced for conversion of OD-number of cells.

[4] = system: G1947 human prostatic hyperplasia cells
Protocol: as §2

PC-3 cells [5] = assay: Annexin V FITC / propidium iodide double labelling, flow cytometry; assay type: cell-based, human; conditions: 2.5 μM
Source text: During the proliferation assays of PC-3 or ABAE cells, in the presence of dermaseptin B2, the rapidly observed inhibitor effect and the non-refringence of the treated cells leads to assuming that dermaseptin B2 could have a cytotoxic role or cell death inducing role rather than blocking the growth of sensitive cells. To determine whether dermaseptin B2 could induce apoptosis of sensitive cells, the inventors conducted double labelling experiments with Annexin V and propidium iodide on PC-3 cells in culture on plastic and treated or not treated with dermaseptin B2. These experiments were followed by flow cytometry analysis of the labelled cells.
For this purpose, the cells were seeded in 6-well plates in the absence or presence of 2.5 μM of dermaseptin B2 for 24 or 72 hours. The cells were then detached, washed with cold PBS and re-suspended in 100 μl of fixing buffer (MACs, Miltenyi Biotec) containing Annexin V FITC for 10 min in the dark. After washings in PBS, the cells were again labelled by incubation in a fixing buffer containing a final concentration of 1 μg/ml of propidium iodide (PI) for 5 min in the dark. After further washings the cells were analyzed by passing through a flow cytometer (FACScan, Becton Dickinson Labware) (FIGS. 10 and 11).

[6] = system: Gram+ and Gram− bacteria, yeasts, protozoa and filamentous fungi; conditions: micromolar doses; cited from earlier work
LB-EBV cells = assay: Growth of non-adherent B-lymphoma line LB-EBV, crystal violet cell count; assay type: cell-based, human; conditions: 10 μM; count on 7th day
Protocol: as §1

Row | Compound | inhibition of tumour growth (tumour volume) compared with non-treated tumours ([1]; intra-peritoneal 10 mg/kg twice per week, 29 days of treatment) [%] | formation of pseudo capillaries induced by FGF-2 (ABAE cells; 20 ng/ml FGF-2) | cytotoxic effect on the monolayer of ABAE cells (ABAE cells; pseudo capillary assay) | inhibition of growth of Raji cells (Raji cells) | inhibition of growth of ABAE cells [2] | effect on binding of agonists with the receptor of adenosin A1 (receptor of adenosin A1) | growth of PC-3 cells on soft agar (colonies) (PC-3 cells [3]) | cell detachment during treatment, embryo (CES) cells (mouse embryo cells (CES)) | cell detachment during treatment, G1947 cells [4] | mice with full disappearance of the tumour ([1]; batches of 10 mice, after sacrifice at day 29) [mice] | increase of percentage of cells labelled solely with PI (necrosis) (PC-3 cells [5]) [times] | increase in cells labelled twofold with Annexin V and PI (apoptosis) (PC-3 cells [5]; 24 h) | increase of percentage of cells only labelled with Annexin V (early apoptosis) (PC-3 cells [5]; 24 h) [times] | percentage of non-labelled cells (PC-3 cells [5]; 24 h) | percentage of cells labelled twofold with Annexin V and PI, 72 h versus 24 h (PC-3 cells [5]; 72 h) | killing of Gram+ and Gram− bacteria, yeasts, protozoa and filamentous fungi [6] | inhibition of growth of LB-EBV cells (LB-EBV cells)
1 | CC(=O)O[C@H]1C(=O)[C@@]2(C)[C@H]([C@H](OC(=O)c3ccccc3)[C@]3(O)C[C@H](OC(=O)[C@H](O)[C@@H](NC(=O)c4ccccc4)c4ccccc4)C(C)=C1C3(C)C)[C@]1(OC(C)=O)CO[C@@H]1C[C@@H]2O [Taxol®, paclitaxel, reference compound] | 36 |  |  |  |  |  |  |  |  |  |  |  |  |  |  |  | 
2 | GLWSKIKEVGKEAAKAAAKAAGKAALGAVSEAV [dermaseptin B2] |  | strongly inhibits | did not have any cytotoxic effect | about 95 | dose-dependent and full inhibition | increase the binding of agonists | fully inhibits growth | no cell detachment was observed | no cell detachment was observed | 3 | 3 | about 30% | 5 | dropped suddenly in the same proportions | does not change | rapidly kills | about 95
